Measurements reported in paper PMC10372922 (Acta Pharmaceutica Sinica. B, 2023).

Target: T1, TGF-β receptor type-1 (TGFβR1) (Homo sapiens, UniProt P36897)
T1 sequence (P36897 200-503 limits assumed): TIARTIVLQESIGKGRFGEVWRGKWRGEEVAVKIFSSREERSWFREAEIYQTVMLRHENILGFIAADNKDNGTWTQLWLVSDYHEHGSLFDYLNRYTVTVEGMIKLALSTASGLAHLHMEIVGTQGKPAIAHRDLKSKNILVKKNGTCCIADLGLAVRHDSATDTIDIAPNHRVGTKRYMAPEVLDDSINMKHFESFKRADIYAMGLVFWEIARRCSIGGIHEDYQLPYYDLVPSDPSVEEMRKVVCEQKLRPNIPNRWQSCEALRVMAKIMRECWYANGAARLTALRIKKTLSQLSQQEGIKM
Test: SPR
Format: binding

Kd: 24 µM
Compound: CC(=O)O[C@@H]1C[C@H](O)[C@@]23COC(O)C1(C)[C@@H]2C[C@@H](O)[C@@]1(C)[C@@H]2C(=O)C[C@@H](c4ccoc4)[C@]2(C)[C@@H](OC(C)=O)C(=O)[C@@H]13 (stereo partly shown) [ITSN, Isotoosendanin]
